Measured values reported in ChEMBL document CHEMBL5696442, “Discovery of type II inhibitors of TGFβ-activated kinase 1 (TAK1) and mitogen-activated protein kinase kinase kinase kinase 2 (MAP4K2)” (J Med Chem, 2015).
Active and inactive are the calls of the source. No cut-off for these calls is given here.

How the values were obtained:
[1] = target: Cyclin-dependent kinase 9 (Homo sapiens) (UniProt P50750); experiment: Inhibition of CDK9 K2 labeling site in human Huh-7 cells at 10 uM by KiNativ Profiling analysis relative to control; type: cell-based
Cyclin-dependent kinase 9 (Homo sapiens), sequence (P50750 whole entry): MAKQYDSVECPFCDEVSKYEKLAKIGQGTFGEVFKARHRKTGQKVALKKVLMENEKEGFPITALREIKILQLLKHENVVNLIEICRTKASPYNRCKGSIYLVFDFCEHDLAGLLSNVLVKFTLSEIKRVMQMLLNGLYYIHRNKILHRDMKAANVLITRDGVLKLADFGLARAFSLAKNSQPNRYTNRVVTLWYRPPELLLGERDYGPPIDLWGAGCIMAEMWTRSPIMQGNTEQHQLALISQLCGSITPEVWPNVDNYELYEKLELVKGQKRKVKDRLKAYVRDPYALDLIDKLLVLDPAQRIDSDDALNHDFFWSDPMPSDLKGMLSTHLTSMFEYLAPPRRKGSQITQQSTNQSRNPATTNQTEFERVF

[2] = target: T1, Aurora kinase A (Homo sapiens) (UniProt O14965); experiment: Inhibition of AurA K2 labeling site harbouring VIHRDIKPENLLLGSAGELK in human Huh-7 cells at 1 uM by KiNativ Profiling analysis relative to control; type: cell-based
T1 sequence (whole entry): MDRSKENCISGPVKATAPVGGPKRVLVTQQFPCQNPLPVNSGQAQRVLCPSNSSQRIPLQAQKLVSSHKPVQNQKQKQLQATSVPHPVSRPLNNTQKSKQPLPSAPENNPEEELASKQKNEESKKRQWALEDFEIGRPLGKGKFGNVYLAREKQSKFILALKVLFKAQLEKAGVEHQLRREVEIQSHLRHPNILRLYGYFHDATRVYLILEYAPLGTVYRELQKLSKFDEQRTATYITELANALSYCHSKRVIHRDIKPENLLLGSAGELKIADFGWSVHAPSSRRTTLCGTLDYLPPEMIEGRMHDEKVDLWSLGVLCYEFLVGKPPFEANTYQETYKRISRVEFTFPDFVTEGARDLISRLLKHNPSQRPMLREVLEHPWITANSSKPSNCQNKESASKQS

[3] = target: Mitogen-activated protein kinase kinase kinase kinase 4 (Homo sapiens, UniProt O95819); experiment: Inhibition of MAP4K4 (unknown origin) at 10 uM by Ambit Kinomescan binding assay relative to control
Mitogen-activated protein kinase kinase kinase kinase 4, sequence (O95819 2-1239 limits assumed): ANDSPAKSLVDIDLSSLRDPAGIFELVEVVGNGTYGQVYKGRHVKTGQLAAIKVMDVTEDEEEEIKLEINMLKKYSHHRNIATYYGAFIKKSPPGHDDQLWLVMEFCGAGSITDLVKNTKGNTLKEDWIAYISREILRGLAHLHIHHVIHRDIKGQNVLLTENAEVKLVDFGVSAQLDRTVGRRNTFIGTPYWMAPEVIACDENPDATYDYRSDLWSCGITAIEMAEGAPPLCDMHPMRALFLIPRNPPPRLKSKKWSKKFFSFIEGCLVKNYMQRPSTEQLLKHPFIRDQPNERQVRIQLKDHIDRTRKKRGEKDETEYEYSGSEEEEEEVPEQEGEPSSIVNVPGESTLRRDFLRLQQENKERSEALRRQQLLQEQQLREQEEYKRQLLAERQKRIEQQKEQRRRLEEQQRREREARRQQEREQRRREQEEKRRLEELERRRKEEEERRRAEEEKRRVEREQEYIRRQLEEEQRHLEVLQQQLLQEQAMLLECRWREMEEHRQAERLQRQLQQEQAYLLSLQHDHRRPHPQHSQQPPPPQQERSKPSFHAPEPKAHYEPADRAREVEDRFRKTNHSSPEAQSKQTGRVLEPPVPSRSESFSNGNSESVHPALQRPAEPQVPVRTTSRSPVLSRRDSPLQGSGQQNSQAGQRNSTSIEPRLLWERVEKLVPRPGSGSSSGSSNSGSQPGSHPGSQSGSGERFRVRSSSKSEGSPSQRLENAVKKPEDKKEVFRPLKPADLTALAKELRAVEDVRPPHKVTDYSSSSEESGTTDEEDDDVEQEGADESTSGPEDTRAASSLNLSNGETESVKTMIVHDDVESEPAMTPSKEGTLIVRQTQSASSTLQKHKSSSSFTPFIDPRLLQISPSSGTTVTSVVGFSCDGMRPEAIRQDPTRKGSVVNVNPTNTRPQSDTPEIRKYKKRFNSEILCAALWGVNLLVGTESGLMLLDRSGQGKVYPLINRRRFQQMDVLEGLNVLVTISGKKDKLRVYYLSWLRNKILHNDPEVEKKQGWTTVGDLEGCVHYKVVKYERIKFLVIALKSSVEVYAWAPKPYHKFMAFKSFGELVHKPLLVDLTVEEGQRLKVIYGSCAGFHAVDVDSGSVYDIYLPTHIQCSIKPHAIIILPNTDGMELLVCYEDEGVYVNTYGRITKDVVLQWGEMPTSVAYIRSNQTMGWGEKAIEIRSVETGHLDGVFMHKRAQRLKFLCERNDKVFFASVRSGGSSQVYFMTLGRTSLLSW

[4] = target: T2, Serine/threonine-protein kinase Chk1 (Homo sapiens) (UniProt O14757); experiment: Inhibition of CHK1 Lys2 labeling site in human Huh-7 cell lysate at 1 uM by KiNativ Profiling analysis relative to control; type: subcellular
T2 sequence (whole entry): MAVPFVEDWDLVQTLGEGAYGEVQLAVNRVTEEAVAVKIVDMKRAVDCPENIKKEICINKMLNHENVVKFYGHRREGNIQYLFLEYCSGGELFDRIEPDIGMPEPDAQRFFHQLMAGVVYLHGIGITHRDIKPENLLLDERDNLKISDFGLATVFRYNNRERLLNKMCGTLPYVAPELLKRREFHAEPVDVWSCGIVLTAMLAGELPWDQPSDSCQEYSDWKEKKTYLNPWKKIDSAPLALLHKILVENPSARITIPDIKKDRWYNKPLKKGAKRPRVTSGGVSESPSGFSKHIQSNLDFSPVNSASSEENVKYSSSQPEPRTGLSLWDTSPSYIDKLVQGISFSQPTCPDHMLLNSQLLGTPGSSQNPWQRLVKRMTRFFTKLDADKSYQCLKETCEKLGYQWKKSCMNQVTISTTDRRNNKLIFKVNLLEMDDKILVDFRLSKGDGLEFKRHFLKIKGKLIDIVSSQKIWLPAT

[5] = target: Ribosomal protein S6 kinase alpha-3 (Homo sapiens) (UniProt P51812); experiment: Inhibition of RSK2 domain2 Lys2 labeling site harbouring TVEYLHAQGVVHRDLKPSNILYVDESGNPESIR in human Huh-7 cell lysate at 1 uM by KiNativ Profiling analysis relative to control; type: subcellular
Ribosomal protein S6 kinase alpha-3 (Homo sapiens), sequence (P51812 whole entry, the tested form may be a part): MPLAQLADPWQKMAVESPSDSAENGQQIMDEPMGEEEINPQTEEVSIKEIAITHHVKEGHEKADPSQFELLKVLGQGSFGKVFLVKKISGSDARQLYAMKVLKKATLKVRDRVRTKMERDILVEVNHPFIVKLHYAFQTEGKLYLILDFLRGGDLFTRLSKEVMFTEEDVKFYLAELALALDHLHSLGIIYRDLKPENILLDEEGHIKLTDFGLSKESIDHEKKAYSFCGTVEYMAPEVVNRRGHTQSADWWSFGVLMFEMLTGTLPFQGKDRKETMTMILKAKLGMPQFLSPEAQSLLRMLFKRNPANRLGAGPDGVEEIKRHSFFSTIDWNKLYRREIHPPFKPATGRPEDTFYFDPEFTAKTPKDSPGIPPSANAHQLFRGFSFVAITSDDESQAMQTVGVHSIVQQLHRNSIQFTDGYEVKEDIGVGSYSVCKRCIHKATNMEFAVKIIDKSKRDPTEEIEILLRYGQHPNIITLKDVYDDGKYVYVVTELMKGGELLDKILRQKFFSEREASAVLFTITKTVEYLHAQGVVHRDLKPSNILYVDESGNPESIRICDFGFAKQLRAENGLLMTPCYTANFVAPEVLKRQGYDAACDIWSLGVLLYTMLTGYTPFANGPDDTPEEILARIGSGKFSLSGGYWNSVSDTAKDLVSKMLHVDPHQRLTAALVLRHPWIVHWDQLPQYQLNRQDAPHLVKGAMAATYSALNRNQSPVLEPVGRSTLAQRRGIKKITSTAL

[6] = target: Calcium/calmodulin-dependent protein kinase type 1 (Homo sapiens) (UniProt Q14012); experiment: Inhibition of CaMK1a Lys1 labeling site in human Huh-7 cells at 1 uM by KiNativ Profiling analysis relative to control; type: cell-based
Calcium/calmodulin-dependent protein kinase type 1 (Homo sapiens), sequence (Q14012 whole entry, looked up): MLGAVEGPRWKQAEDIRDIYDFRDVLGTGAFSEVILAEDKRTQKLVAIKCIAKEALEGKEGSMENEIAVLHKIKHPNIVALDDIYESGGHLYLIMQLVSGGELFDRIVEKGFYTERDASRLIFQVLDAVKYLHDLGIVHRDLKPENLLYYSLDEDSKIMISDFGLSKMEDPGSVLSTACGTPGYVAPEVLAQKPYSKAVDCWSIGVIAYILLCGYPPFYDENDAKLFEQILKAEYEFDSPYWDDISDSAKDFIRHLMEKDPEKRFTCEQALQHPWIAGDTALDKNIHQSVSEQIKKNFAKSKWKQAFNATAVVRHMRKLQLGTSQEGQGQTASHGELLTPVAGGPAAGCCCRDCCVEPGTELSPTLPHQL

[7] = target: Serine/threonine-protein kinase 32C (Homo sapiens) (UniProt Q86UX6); experiment: Inhibition of YANK3 Lys2 labeling site in human Huh-7 cells at 1 uM by KiNativ Profiling analysis relative to control; type: cell-based
Serine/threonine-protein kinase 32C (Homo sapiens), sequence (Q86UX6 whole entry): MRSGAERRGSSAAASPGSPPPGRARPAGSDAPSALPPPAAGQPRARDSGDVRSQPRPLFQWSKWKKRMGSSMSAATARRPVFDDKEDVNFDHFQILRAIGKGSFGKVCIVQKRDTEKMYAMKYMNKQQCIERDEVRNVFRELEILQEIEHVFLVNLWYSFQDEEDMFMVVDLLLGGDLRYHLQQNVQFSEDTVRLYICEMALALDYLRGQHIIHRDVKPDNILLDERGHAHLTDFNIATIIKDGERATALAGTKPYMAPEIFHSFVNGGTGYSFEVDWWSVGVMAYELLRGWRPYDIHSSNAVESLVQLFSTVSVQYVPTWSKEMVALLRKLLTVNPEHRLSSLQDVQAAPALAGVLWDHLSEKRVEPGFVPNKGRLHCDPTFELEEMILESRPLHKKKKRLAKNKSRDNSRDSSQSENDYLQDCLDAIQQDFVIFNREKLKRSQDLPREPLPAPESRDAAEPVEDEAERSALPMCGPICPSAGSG

[8] = target: T3, Serine/threonine-protein kinase LATS2 (Homo sapiens) (UniProt Q9NRM7); experiment: Inhibition of LATS2 Lys1 labeling site in human Huh-7 cell lysate at 1 uM by KiNativ Profiling analysis relative to control; type: subcellular
T3 sequence (whole entry): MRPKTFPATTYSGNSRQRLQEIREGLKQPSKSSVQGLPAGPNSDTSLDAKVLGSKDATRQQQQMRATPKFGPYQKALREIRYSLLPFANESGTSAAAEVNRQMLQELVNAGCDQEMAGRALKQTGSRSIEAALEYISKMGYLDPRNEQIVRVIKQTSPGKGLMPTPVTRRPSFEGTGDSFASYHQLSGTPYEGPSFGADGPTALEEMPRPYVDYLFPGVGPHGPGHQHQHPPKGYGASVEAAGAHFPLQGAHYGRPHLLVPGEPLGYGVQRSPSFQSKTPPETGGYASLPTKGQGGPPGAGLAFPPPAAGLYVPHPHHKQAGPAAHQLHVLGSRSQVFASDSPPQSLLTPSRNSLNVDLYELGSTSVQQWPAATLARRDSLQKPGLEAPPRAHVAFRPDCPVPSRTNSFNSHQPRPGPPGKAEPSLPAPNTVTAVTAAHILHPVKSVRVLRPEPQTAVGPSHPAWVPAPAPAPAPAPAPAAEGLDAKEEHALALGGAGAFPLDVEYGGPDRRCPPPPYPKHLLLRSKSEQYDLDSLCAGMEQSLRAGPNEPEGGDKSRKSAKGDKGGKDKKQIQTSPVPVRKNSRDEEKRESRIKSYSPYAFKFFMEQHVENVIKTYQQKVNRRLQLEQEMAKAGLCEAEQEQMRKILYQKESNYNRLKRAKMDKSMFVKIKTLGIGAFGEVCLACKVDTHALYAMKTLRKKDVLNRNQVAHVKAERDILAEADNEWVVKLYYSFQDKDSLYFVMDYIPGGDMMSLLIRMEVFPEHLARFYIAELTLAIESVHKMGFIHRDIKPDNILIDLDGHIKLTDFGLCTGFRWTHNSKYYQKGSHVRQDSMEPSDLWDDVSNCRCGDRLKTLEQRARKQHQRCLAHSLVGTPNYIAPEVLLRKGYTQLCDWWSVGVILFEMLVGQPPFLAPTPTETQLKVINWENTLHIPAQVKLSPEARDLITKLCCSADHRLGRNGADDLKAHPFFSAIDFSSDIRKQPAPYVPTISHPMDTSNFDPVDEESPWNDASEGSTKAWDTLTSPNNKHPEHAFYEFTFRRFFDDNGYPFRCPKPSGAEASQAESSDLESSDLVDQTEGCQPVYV

[9] = target: Tyrosine-protein kinase ABL1 (Homo sapiens, UniProt P00519); experiment: Inhibition of ABL ACT labeling site in human Huh-7 cells at 1 uM by KiNativ Profiling analysis relative to control; type: cell-based
Tyrosine-protein kinase ABL1, sequence (P00519 whole entry): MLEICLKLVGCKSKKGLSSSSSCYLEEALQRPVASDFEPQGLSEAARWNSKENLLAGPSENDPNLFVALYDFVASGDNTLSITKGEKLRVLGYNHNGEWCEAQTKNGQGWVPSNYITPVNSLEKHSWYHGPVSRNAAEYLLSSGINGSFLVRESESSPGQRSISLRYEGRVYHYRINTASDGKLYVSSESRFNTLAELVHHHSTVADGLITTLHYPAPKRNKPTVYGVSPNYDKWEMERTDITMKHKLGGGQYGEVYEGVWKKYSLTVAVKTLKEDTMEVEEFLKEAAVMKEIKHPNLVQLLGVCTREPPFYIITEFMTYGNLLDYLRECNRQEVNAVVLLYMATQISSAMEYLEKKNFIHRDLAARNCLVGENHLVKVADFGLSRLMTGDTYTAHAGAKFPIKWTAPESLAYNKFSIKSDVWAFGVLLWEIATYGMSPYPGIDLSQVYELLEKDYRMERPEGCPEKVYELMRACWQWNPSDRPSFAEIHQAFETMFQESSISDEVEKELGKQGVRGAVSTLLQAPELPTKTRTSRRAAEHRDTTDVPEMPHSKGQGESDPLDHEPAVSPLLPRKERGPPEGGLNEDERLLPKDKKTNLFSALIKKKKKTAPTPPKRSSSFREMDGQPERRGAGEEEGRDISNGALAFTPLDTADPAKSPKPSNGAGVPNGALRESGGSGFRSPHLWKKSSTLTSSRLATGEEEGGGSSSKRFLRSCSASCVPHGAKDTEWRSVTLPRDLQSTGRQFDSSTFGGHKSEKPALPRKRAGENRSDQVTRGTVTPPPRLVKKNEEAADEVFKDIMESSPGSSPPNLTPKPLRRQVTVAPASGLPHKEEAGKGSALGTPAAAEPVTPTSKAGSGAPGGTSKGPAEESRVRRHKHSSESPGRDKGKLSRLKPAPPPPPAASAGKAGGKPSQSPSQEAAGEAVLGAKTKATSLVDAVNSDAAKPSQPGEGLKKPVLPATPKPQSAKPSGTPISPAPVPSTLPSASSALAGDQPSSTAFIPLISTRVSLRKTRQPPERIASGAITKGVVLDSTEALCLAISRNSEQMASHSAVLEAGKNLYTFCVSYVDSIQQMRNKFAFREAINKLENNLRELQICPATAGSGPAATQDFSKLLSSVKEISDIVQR

[10] = target: Serine/threonine-protein kinase 4 (Homo sapiens) (UniProt Q13043); experiment: Inhibition of MST1 Lys2 labeling site harbouring DIKAGNILLNTEGHAK in human A-375 cells at 5 uM by KiNativ Profiling analysis relative to control
Serine/threonine-protein kinase 4 (Homo sapiens), sequence (Q13043 whole entry, looked up): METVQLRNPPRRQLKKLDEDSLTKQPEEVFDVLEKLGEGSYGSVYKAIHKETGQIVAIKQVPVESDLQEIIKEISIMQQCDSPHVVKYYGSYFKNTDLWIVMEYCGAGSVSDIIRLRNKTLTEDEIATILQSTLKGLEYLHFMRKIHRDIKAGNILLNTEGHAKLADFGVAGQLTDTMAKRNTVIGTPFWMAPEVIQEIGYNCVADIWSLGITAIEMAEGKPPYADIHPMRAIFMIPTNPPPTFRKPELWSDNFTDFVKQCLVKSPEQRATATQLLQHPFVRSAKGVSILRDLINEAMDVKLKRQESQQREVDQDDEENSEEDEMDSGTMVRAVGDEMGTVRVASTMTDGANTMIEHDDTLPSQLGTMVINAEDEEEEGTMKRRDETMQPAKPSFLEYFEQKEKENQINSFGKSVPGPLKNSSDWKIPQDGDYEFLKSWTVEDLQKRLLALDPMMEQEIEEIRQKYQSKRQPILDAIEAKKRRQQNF

With `CCN1CCN(Cc2ccc(NC(=O)c3ccc(C)c(Oc4ccnc5[nH]ccc45)c3)cc2C(F)(F)F)CC1` the inhibition [1] was 0.4%, the inhibition [2] was “inactive” and the inhibition [3] was 0%.
With `CNc1cc(Oc2cc(C(=O)Nc3cc(N4CCN(C)CC4)cc(C(F)(F)F)c3)ccc2C)ncn1` the inhibition [4] was -1.1%, the inhibition [5] was 11.6% and the inhibition [6] was 3.6%. The inhibition [7] was 12.2%, the inhibition [8] was -3.8% and the inhibition [9] was 31.6%.
For `CCN1CCN(Cc2ccc(NC(=O)c3ccc(C)c(/C=C/c4cnc5[nH]ccc5c4OC)c3)cc2C(F)(F)F)CC1`, the inhibition [10] was 14.1%.
